Reference: patent US5204311A, “Ethanediimidic acid bis[(arylalkylidene)hydrazide] color-formers” (Minnesota Mining and Manufacturing Company, priority 1991, dated 1993)

Key:
Type in all cases: physicochemical
[1] = Volatility: transfer from simulated donor sheet to receptor sheet; conditions: 71 ° C. overnight
From the text: The method utilized in the experiments to both define and evaluate the level of volatility was as follows. A single sheet piece of Grade #10 (20×12 cm) cheesecloth (AF & F., Item No. 588033, American Fiber and Finishing, Inc., Burlington, Mass.) was placed between a simulated donor sheet and a receptor sheet of a carbonless paper construction. The simulated donor sheet comprised a sheet of paper saturated with color-former of structure I, which was used to simulate a CB sheet with ruptured capsules. Pressure was then applied for 24 hours by placing 9 pounds of paper on top of the sheets, to simulate storage conditions of the paper packages. The formation of color on the receptor sheet, due to transfer of volatile color-former thereto, was used as an indication that the particular color-former was less than optimally desirable for carbonless paper constructions, i.e., was volatile. A compound was considered generally to be nonvolatile, within the meaning of the term as used herein to define the present invention and thus to define color-formers most acceptable for use in carbonless image transfer arrangements, if no color was formed after the simulated test was run for about 24 hours at 25° C. In some instances, if no color was formed after storage at room temperature (25° C.), successively higher temperatures were used, as for example 49° C., 60° C., and 71° C. […]

[2] = Imaging of CB sheet with encapsulated color-former on Ni-coated CF sheet
Protocol: A precondensate solution was prepared comprising 192 g of formalin, 0.63 g of potassium tetraborate, 72 g of urea, and 328 g of soft water. The formalin was 37% formaldehyde and was added to a 1-liter flask equipped with a stirrer and heating mantle. The potassium tetraborate and urea were then added, and the mixture was heated to 70° C. The reaction was maintained at that temperature for 2.5-3.0 hr. The reaction mixture was then diluted with the water and allowed to cool. The precondensate solution, with about 24% solids, was then ready for use in the encapsulation process.
The precondensate and fill (ethanediimidic acid bis[hydrazide] and carrier or fill solvents) were combined to make capsules according to the following procedure. Sodium chloride (29.54 g) was added to the stirred precondensate solution and the temperature of the solution was adjusted to 20° C. The fill material (215 g) was added and full agitation was begun. After 5 minutes of stirring, 10% hydrochloric acid solution was added over 5 minutes in an amount such that the final pH of the reaction mixture was about 2.8. The reaction mixture was stirred for another 12 minutes. More of the 10% hydrochloric acid solution was added over a period of 12 minutes, in an amount such that the final pH of the solution was about […]. The reaction mixture was stirred at 20° C. for 1 hr, and then at 60° C. for 1-3 hr. The acidic solution was allowed to cool and adjusted to a pH of 7 by addition of concentrated ammonium hydroxide solution (28%). The capsule slurry could then be stored for later use.
The capsule slurry (10 g) was added to 65 g of a 1.5% aqueous sodium alginate solution. The mixture was applied to a coated paper using a bar coater with a 3 mil gap. The coating was allowed to dry at room temperature.
A 2% solution of the compound 1 in the capsule fill solvent of diethyl phthalate, tributyl phosphate, and cyclohexane was encapsulated by the procedure described in Experiment 5 above. A coating mixture of 10.0 g of capsule slurry, 2.5 g of Dow-620 butadiene-styrene latex, and 62.5 g of 1.5% sodium alginate slurry was coated onto paper by the draw down procedure described above.
A 7.5% solution comprising 5.45% N-(5-octanoylamido-2-metylpentyl)dithiooxamide/N-(5-octanoylamido-4-methylpentyl)dithiooxamide (G') mixture and 2.05% N,N'-di(5-octanoylamido-2-methylpentyl)dithiooxamide/N-(5-octanoylamido-2- methylpentyl)-N'-(5-octanoylamido-4-methylpentyl)dithiooxamide/N,N'-(5-octanoylamido-2-methylpentyl)dithiooxamide (G) mixture in the fill solvent mixture of diethyl phthalate, tributyl phosphate, and cyclohexanone was encapsulated by the procedure described above. A coating mixture of 10.0 g of capsule slurry, 2.5 g of Dow 620 styrene-butadiene latex, and 62.5 g of 1.5% sodium alginate solution was coated onto paper by the draw down procedure described in Experiment 5 above.
A blend was prepared of 10 g of the capsule slurry containing compound 1, with 10 g of capsule slurry containing 5.45% N-(5-octanoylamido-2-methylpentyl)dithiooxamide/N-(5-octanoylamido-4-methylpentyl)dithiooxamide (G') mixture and 2.05% N,N'-di(5-octanoylamido-2-methylpentyl)dithiooxamide/N-(5-octanoylamido-2- methylpentyl)-N'-(5-octanoylamido-4-methylpentyl)dithiooxamide/N,N'-di(5-octanoylamido-4-methylpentyl)dithiooxamide (G) mixture. […]

[3] = Color formation with zinc salts (zinc rosinate)
Protocol: (§1) This color observed on the CF sheet was yellow. […] Solubility in a solvent blend of tributyl phosphate, diethyl phthalate and cyclohexane (capsule solvents for preparing carbonless copy-paper) was >9% by weight. Thus the ligand is eminently suitable for encapsulation. The ligand is not volatile at 71 ° C. overnight.
This color observed on the CF sheet was yellow.

[4] = Stability in concentrated hydrochloric acid
[5] = Solubility in capsule fill solvents
Protocol: The encapsulation process requires the color-forming ligand be dissolved in a solvent or mixed solvents, because of the nature of the procedure. Formation of a microcapsule shell as by condensation of urea or melamine with an aldehyde such as formaldehyde or mixtures of aldehydes to form the capsule shell is carried out in an acidic aqueous medium and the color-former solution must be insoluble and unreactive to these reagents for the encapsulation to proceed. Solvents commonly used include tributyl phosphate, diethyl phthalate, and cyclohexane. […] As mentioned above, solubility of yellow color-formers exemplified by structure I in nonaqueous solvents such as those used in the encapsulation process may be increased by substituting alkyl, aryl, aralkyl, alkenyl, or such groups for the hydrogens on the various positions available in the structure I above.
as §1
Solubility in a solvent blend of tributyl phosphate, diethyl phthalate and cyclohexane (capsule solvents for preparing carbonless copy-paper) was 3% by weight. Thus the ligand is eminently suitable for encapsulation. The ligand is not volatile at 71 ° C. overnight.
*THE SOLUBILITY WAS DEEMED PREFERABLE IF IT WAS GREATER THAN 2% IN THE
FILL MIX AT ROOM TEMPERATURE FOR 3 DAYS. THE FILL MIX COMPRISED
TRIBUTYLPHOSPHATE (26.5%); DIETHYLPHTHALATE (17.6%); AND CYCLOHEXANE

[6] = encapsulated, 2% compound 1 fill, 7.5% G'/G fill, or blend of both capsule slurries (Experiment 6)

Q: Which volatility [1] does the source give for `CC(C)(C)c1cc(C=NN=C(N)C(N)=NN=Cc2cc(C(C)(C)C)cc(C(C)(C)C)c2O)c(O)c(C(C)(C)C)c1` [Compound 1, ethanediimidic acid bis[(3,5-di-t-butylsalicylidene)hydrazide]] here?
A: not volatile

Q: What about the Image Color ([2]; encapsulated (Experiment 6)) of the same compound?
A: yellow

Q: And the “Hunter coordinate L” value [2, 6]?
A: 84.0

Q: What about the Hunter coordinate a [2, 6] of the same compound?
A: -2.04

Q: And the Hunter coordinate b [2, 6]?
A: 31.0

Q: What about the “color formation when reacted with zinc rosinate” value [3] of the same compound?
A: does not form color

Q: What about the “stability in concentrated hydrochloric acid” value [4] of the same compound?
A: stable

Q: What about the “Solubility in a solvent blend of tributyl phosphate, diethyl phthalate and cyclohexane” value [5] of the same compound?
A: > 9 % by weight

Q: What about the “solubility in encapsulation / capsule solvents (in words)” value [5] of the same compound?
A: very soluble in encapsulation solvents

Q: And the “Dye Solubility” value ([5]; 4320 min)?
A: > 9.0%
